{"source": "paper PMC11873939", "about": "“Target Identification with Live-Cell Photoaffinity Labeling and Mechanism of Action Elucidation of ARN23765, a Highly Potent CFTR Corrector” (Journal of Medicinal Chemistry, 2025)", "key": {"[1]": {"target": "T1, F508del-CFTR (Homo sapiens, UniProt P13569, DEL508-508)", "T1 construct": "expressed in transfected cells", "T1 sequence (P13569 with tags, fused parts or gaps DEL508-508)": "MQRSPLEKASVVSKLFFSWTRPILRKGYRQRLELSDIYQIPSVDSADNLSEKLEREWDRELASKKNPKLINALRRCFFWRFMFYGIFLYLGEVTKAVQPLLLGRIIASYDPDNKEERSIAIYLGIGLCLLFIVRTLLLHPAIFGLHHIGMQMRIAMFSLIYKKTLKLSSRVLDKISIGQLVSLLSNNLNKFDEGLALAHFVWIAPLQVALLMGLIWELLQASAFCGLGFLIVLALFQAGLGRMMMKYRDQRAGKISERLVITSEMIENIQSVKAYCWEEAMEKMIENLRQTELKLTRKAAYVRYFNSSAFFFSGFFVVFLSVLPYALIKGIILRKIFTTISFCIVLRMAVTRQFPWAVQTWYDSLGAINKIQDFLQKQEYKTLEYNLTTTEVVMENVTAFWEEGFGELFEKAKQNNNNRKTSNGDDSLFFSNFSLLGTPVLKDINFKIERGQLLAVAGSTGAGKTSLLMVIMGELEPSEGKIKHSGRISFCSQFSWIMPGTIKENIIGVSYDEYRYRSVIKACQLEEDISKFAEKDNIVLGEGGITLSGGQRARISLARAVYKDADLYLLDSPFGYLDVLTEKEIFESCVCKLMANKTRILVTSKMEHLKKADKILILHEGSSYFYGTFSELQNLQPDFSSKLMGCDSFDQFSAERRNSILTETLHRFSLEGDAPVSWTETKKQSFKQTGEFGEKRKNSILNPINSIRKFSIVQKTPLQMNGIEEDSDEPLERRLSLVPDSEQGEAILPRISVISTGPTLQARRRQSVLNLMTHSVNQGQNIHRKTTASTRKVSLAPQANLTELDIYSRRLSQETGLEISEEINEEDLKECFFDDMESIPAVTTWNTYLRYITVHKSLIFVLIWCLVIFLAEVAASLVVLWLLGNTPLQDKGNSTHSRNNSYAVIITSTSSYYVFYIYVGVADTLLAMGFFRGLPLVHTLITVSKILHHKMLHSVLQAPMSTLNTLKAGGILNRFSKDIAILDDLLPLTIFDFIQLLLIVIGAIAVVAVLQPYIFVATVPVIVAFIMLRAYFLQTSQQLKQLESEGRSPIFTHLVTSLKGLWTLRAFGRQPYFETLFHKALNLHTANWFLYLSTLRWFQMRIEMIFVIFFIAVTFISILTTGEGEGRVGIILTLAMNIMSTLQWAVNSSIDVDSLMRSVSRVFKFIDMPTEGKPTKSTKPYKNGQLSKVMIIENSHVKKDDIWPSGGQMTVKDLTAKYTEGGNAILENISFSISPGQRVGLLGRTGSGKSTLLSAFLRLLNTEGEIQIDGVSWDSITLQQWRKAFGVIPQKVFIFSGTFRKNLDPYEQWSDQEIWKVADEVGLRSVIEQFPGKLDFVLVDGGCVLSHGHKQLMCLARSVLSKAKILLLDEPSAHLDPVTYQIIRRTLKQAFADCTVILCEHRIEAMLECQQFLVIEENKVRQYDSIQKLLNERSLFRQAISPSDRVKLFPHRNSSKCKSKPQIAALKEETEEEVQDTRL", "assay": "Live-cell photoaffinity labeling, streptavidin pull-down and CFTR Western blot", "type": "binding", "conditions": "F508del-CFTR CFBE41o- cells, 25-fold excess (25 μM) competitor 30 min before probe (1 μM)", "experimental": "Wt-CFTR or F508del-CFTR CFBE41o- cells were plated at 2–2.5 × 10^6 cells/plate in 6 cm diameter dishes. The day after, sodium butyrate (5–2.5 mM) was added for 24 h; next, the medium was exchanged with fresh one supplemented with DMSO (0.25%) (276855, Sigma-Aldrich) or probe (1 μM). For competition experiments, a 25-fold excess of ARN23765 (25 μM) was added 30 min before probe’s addition. For the analysis of “corrected” F508del-CFTR, F508del-CFTR CFBE41o- cells were kept at 27 °C for 24 h before adding the probes. Probes were incubated with cells for 2 h, then the medium was removed, and plates were washed twice with phosphate buffer saline (PBS). Cells were placed on ice and irradiated for 5 min at a wavelength of 365 nm using a 100-W UV-lamp (95–0127–02 model B100-AP, Analytik Jena). Cells were harvested with trypsin (T4299, Sigma-Aldrich), washed with PBS (D8537, Sigma-Aldrich), and pellets were stored at −80 °C until used, centrifuged at 300 × g and washed twice with PBS (D8537, Sigma-Aldrich). Pellets from in-cell photoaffinity labeling with alkyne-probes (PAP_1 and PAP_2) were lysed in PBS plus protease inhibitor cocktail (78429, Thermo Scientific) by sonication. The suspension was centrifuged at 800 × g for 20 min at 4 °C to discard nuclei and cell debris. The total extracted proteins were quantified with the bicinchoninic acid (BCA) protein assay (23225, Thermo Scientific) and subjected to CuAAC before proceeding with pull-down. Pellets from in-cell photoaffinity labeling with desthio-biotinylated (DS-biot) probes (PAP_1 DS-biot, PAP_2 DS-biot, PAP_N1 DS-biot, PAP_N2 DS-biot) were lysed with a modified RIPA buffer [50 mM tris-HCl pH 8, 150 mM NaCl, 0.5% Triton-X100, 0.2% SDS, 1 mM ethylenediaminetetraacetic acid (EDTA)] supplemented with protease inhibitor cocktail and centrifuged at 10.000× g for 10 min. The protein content in the supernatant was quantified by BCA protein assay. Protein lysate (200 μg) was diluted to 800 μL and the Triton-X100 percentage was reduced to 0.2% before proceeding to pull-down.\nHigh capacity streptavidin agarose (20359, Thermo Scientific) (25 μL) was added to PAP-labeled cell extracts for 1 h at room temperature under gentle rotation. The streptavidin beads were collected by centrifugation and washed four times with lysis buffer. Resin-bound proteins were eluted with 45 μL of 5 mM biotin (B4501, Sigma-Aldrich) for 30 min at room temperature and analyzed with Western blot for CFTR expression. Input samples (4 and 8 μg for wt-CFTR and F508del-CFTR CFBE41o-, respectively) were collected immediately before incubation with streptavidin resin. Input and pulled-down samples were analyzed with WB as described in the supplementary methods."}, "[2]": {"target": "CFTR fragments containing MSD2 (Homo sapiens, UniProt P13569)", "sequence (P13569 850-1196 limits assumed)": "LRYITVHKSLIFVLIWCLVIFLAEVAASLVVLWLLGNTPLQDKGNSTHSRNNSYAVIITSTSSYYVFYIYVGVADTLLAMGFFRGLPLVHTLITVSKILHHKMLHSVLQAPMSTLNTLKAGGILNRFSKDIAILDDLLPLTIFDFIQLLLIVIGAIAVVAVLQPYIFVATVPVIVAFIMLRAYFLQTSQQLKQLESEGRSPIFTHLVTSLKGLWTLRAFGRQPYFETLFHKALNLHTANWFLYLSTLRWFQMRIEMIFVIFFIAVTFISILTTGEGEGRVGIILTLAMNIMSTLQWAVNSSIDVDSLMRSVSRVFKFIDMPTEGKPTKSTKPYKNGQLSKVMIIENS", "assay": "CFTR fragment stability analysis (WB) in transfected HEK293 cells", "type": "cell-based", "conditions": "HEK293, 24 h incubation, 10 nM", "experimental": "(§1) CFTR correctors are expected to stabilize the expression of the protein domains with which they interact, resulting in an increased amount of protein.[35]−[37] To determinate the portion of CFTR with which ARN23765 interacts, constructs coding for CFTR fragments of different lengths (Figure 3A) were transfected in HEK293 cells, and the effect of 24 h incubation with ARN23765 on the expression of the truncated proteins was analyzed with WB. […] To better study ARN23765’s stabilization of MSD1 vs MSD2, we analyzed their expression in transfected HEK-293 cells over 6 h of cycloheximide treatment.\n(§2) Constructs coding for MSD1 (residues 1–380), A52-tagged MSD2 (residues 837–1196) and MSD2-NBD2 (residues 850–1480) were transfected in HEK293 cells using JetPEI reagent (101000053, Polyplus Technology). After 18 h transfection, cells were treated for 24 h with either 0.2% DMSO, VX-661 (3 μM), ARN23765 (10 nM) or corr-4a (10 μM). Cell lysates were analyzed by WB, as described in the dedicated paragraph."}, "[3]": {"target": "CFTR fragments containing MSD1 (Homo sapiens, UniProt P13569)", "sequence (P13569 1-380 limits assumed)": "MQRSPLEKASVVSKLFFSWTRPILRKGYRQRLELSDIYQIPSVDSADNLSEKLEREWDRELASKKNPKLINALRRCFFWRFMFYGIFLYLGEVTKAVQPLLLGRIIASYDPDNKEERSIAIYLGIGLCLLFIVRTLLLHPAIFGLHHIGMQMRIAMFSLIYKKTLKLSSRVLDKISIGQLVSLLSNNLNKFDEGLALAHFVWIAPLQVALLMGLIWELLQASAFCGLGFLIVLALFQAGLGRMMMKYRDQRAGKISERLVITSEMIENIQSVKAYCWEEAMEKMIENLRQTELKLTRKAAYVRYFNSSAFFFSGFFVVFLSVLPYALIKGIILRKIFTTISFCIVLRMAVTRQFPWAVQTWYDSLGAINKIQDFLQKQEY", "assay": "CFTR fragment stability analysis (WB) in transfected HEK293 cells", "type": "cell-based", "conditions": "HEK293, 24 h incubation, 10 nM", "experimental": "as §1, §2"}, "[4]": {"target": "T2, R170G-CFTR (Homo sapiens, UniProt P13569, R170G)", "T2 construct": "CFTR identification in pull-down studies and analysis of full-length CFTR in protein maturation assays; expressed in transfected cells; host or cells: HEK293 (transient)", "T2 sequence (P13569 whole entry R170G)": "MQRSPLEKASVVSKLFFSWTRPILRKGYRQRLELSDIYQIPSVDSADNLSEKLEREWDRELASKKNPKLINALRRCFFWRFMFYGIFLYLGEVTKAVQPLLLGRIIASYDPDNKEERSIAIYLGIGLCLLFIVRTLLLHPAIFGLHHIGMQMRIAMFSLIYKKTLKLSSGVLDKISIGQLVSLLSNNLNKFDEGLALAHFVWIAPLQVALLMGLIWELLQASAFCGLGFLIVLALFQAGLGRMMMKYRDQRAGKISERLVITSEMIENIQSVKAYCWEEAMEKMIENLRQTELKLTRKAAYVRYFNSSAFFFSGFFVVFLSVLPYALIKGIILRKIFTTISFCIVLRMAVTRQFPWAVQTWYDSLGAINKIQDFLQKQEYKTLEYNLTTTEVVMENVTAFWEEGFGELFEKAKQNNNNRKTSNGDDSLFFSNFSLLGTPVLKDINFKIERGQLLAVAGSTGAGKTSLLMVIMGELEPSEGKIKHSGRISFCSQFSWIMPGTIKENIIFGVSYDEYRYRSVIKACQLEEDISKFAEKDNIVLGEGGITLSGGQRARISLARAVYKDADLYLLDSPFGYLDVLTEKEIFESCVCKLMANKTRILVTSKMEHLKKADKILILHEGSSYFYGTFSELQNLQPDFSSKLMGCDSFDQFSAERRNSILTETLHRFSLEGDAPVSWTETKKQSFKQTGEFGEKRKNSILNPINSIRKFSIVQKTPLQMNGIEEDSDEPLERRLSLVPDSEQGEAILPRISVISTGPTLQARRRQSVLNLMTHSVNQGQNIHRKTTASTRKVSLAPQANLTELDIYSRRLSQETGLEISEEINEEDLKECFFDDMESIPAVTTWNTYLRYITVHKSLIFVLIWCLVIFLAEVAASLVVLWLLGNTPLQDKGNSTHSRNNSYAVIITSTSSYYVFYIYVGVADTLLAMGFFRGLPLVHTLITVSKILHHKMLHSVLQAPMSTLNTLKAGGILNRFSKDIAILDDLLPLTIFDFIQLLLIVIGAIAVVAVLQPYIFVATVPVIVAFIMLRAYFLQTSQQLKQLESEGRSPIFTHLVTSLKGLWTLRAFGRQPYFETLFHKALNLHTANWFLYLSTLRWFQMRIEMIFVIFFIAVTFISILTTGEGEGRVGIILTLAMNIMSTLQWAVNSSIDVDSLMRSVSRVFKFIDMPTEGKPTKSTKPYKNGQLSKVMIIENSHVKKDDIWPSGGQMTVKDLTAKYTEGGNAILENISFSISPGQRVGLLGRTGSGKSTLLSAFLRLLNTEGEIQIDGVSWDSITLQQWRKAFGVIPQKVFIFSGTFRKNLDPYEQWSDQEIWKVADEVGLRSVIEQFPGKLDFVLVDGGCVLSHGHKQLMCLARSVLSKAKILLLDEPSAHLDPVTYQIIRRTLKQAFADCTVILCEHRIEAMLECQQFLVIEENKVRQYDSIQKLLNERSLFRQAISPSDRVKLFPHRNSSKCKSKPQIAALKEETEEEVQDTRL", "assay": "Protein maturation assay (WB, band C/(C+B)) in transfected HEK293 cells", "type": "cell-based", "conditions": "HEK293, 24 h, 10 nM", "experimental": "HEK293 cells were plated in 24-wells at around 80% of confluence and transfected with constructs coding for F508del-CFTR or mutants using JetPEI reagent (101000053, Polyplus Technology) following the manufacturer’s instructions. After 24 h, the correctors were added for a further 24 h. Correctors were used at the following concentrations: ARN23765 (10 nM), VX-445 (3 μM), and 3151 (10 μM). For binding site analysis experiments, the cells were kept either at 37 °C (Figure S8) or moved to 30 °C (Figure 9) during incubation with the selected correctors. VX-445 and corrector 3151 were mixed together as a control for maximal protein correction. DMSO (0.2%) was added to nontreated controls. After treatment, cells were lysed in RIPA buffer [50 mM tris-HCl pH 8, 150 mM NaCl, 1% NP40, 0.5% sodium deoxycolate, 0.1% SDS, 2.0 mM EDTA] and lysates were analyzed with WB, as described in the supplementary methods of the Supporting Information."}}}
{"smiles": "CN(C(=O)c1cccc(-n2nc(C(F)(F)F)c3c2[C@@H](Oc2ccc(C(=O)O)cc2)CCC3)c1)c1ccc2c(c1)OC(F)(F)O2", "note": "[ARN23765]", "values": [{"measurement": "Competition: CFTR recovered in pull-down by PAP_1 DS-biot or PAP_2 DS-biot after preincubation with competitor", "setting": "[1]", "value": "markedly reduced amount of the recovered protein"}, {"measurement": "Expression of CFTR fragments containing MSD2 (WB)", "setting": "[2]", "value": "no difference in expression"}, {"measurement": "Correction of CFTR with R domain deleted (delR construct, WB)", "setting": "[3]", "value": "still corrected"}, {"measurement": "Expression of CFTR fragments containing MSD1 (WB)", "setting": "[3]", "value": "increased expression"}, {"measurement": "R170G-CFTR maturation", "setting": "[4]", "value": "improving"}]}
